ChEMBL document CHEMBL1201862, “PubChem BioAssay data set” (2004)
The source made the active and inactive calls.

Columns and labels:
[1] = target: T1, Polyadenylate-binding protein 1 (Homo sapiens, UniProt P11940); test: MLLE domain peptide-binding blockers, IC50 – biochemical, fluorescence polarization, FITC-PAM2 peptide, dose response (AID 602259); assay type: functional; details: read-out: IC50_Mean
Nonstructural protein 1 = Nonstructural protein 1 (Influenza A virus, UniProt Q194T2); assay type: functional, Influenza A virus (A/California/07/2009(H1N1))
[2] = target: T2, Mannose-6-phosphate isomerase (Homo sapiens, UniProt P34949); test: MPI inhibition at elevated mannose 6-phosphate – biochemical, fluorescence intensity, high mannose 6-phosphate, primary screen (AID 1220)
T2 sequence (P34949 whole entry): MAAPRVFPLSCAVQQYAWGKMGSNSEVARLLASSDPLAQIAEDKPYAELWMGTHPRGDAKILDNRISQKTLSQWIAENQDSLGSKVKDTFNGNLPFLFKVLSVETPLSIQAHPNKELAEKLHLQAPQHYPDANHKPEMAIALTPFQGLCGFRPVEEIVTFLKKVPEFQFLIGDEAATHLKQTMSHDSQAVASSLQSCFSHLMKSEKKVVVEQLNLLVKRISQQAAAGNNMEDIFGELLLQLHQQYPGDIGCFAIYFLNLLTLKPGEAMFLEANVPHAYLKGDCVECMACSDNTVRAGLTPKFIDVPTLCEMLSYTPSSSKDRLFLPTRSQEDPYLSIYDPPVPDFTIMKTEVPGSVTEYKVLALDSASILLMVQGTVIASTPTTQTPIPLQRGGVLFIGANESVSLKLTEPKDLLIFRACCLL

[3] = target: T1, Polyadenylate-binding protein 1; test: MLLE binding blockers, Cy5 peptide tracer – biochemical, fluorescence polarization, Cy5-PAM2 peptide, secondary, miRNA deadenylation inhibitor project, dose response (AID 602260); assay type: functional; details: read-out: IC50_Mean
Vero = test: inhibition of WNV-induced cytopathic effect – cell-based, CPE readout (AID 1621); assay type: functional; details: Chlorocebus sabaeus
Estrogen receptor = target: T3, Estrogen receptor (Homo sapiens, UniProt P03372);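 also: potency for inhibiting coactivator peptide recruitment to the receptor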
T3 sequence (P03372 whole entry): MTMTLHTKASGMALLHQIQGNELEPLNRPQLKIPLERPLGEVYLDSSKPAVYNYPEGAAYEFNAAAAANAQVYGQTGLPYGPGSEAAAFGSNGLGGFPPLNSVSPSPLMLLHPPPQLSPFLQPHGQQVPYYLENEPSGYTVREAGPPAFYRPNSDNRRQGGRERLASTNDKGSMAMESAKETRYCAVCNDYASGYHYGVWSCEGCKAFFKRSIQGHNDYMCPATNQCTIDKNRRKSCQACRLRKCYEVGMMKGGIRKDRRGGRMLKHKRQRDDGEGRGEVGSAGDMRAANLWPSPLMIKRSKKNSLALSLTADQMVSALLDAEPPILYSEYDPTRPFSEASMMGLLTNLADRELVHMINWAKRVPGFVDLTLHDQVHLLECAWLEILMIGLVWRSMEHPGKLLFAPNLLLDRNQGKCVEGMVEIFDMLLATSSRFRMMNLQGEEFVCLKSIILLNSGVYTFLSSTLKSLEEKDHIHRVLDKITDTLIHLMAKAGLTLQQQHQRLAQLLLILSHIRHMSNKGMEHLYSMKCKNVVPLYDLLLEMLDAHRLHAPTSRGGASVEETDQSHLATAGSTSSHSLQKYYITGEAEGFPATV

[4] = target: T4, Carboxy-terminal domain RNA polymerase II polypeptide A small phosphatase 1 (Homo sapiens, UniProt Q9GZU7); test: CTDSP1 inhibitors, concentration-response, biochemical, absorbance readout, ultra-high-throughput screen actives (AID 540297); assay type: functional
T4 sequence (Q9GZU7 whole entry): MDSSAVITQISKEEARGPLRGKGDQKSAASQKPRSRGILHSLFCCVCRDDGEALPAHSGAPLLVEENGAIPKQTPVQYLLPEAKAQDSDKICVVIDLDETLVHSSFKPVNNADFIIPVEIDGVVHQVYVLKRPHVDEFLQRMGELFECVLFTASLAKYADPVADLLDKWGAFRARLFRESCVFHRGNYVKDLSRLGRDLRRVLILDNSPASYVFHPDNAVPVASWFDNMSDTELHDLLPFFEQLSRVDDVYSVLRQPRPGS

[5] = Counterscreen for IDE inhibitors: Luminescence-based cell-based high throughput dose response assay to identify compounds that are cytotoxic to HEK cells. [Related pubchem assays: 434962 (Primary screen (IDE inhibitors in singlicate)), 449730 (Counterscreen (Cytotoxicity in triplicate)), 435028 (Confirmation (IDE inhibitors in triplicate)) …; assay type: functional; details: HEK293
Insulin-degrading enzyme = Insulin-degrading enzyme (Homo sapiens, UniProt P14735); test: Dose Response: Fluorescence polarization-based cell-based high throughput dose response assay for inhibitors of insulin-degrading enzyme (IDE). [Related pubchem assays: 434962 (Primary screen (IDE inhibitors in singlicate)), 449730 (Counterscreen (Cytotoxicity in triplicate)), 435028 (Confirmation (IDE inhibitors in triplicate)), 434984 (Summary …; assay type: functional
[6] = target: T5, Histone-lysine N-methyltransferase NSD2 (Homo sapiens, UniProt O96028); assay type: biochemical
T5 sequence (O96028 whole entry): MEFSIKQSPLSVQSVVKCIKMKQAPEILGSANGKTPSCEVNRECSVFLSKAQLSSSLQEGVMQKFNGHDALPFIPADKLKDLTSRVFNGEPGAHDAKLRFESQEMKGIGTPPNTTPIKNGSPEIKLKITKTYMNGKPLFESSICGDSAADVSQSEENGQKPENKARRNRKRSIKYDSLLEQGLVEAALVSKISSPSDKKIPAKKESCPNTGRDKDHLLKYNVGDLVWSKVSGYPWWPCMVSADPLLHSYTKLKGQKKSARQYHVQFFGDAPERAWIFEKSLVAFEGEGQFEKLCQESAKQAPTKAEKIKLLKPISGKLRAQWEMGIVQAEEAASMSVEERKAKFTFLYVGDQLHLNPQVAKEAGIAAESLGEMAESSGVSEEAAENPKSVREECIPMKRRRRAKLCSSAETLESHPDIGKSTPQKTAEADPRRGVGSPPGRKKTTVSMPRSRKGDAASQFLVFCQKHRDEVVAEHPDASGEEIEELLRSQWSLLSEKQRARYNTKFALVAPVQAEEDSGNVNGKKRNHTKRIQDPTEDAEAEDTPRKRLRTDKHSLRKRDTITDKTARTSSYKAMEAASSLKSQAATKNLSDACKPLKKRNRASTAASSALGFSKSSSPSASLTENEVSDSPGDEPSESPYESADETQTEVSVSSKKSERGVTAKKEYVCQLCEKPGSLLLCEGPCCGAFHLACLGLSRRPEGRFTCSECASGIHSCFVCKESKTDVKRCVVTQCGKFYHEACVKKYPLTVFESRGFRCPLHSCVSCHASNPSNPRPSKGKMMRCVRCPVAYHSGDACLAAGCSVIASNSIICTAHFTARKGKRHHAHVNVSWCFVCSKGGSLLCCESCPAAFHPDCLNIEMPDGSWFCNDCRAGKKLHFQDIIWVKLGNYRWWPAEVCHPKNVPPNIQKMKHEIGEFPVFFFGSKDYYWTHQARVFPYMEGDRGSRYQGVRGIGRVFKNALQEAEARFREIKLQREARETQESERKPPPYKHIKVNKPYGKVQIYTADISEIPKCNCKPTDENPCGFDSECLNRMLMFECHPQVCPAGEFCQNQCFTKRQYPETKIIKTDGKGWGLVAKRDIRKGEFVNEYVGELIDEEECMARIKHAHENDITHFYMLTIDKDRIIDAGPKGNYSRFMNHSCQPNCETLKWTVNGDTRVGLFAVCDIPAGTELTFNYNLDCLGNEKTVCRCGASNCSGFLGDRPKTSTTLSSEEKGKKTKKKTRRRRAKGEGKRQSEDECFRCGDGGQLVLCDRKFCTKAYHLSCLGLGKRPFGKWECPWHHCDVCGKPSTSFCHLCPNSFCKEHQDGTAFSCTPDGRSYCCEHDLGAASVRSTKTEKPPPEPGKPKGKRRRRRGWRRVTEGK

CHO = CHO cell viability loss, potency – luminescence, cytotoxicity control for TLR9-MyD88 binding inhibitor project, dose response (AID 588339); assay type: functional, cell-based, hamster; details: Cricetulus griseus;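 also: CHO cells stably coexpressing TLR9 and MyD88 fusions from primary screen; compound exposure lasted 48 hours before viability readout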
Beta Lactamase = Beta Lactamase (Pseudomonas aeruginosa, UniProt Q932Y6); test: BLA reporter interference, concentration series – BLA reporter cells, FRET fluorescence, artefact control for TLR9-MyD88 binding inhibitor project, dose response (AID 588341); assay type: cell-based;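 also: cell based assay in CHO-K1 cells stably expressing beta-lactamase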
Genome polyprotein = Genome polyprotein (dengue virus type 2, UniProt P29990); test: flavivirus cap methylation enzyme inhibition – biochemical, confirmation dose response, primary screen (AID 588689); assay type: functional
Hexokinase HKDC1 = target: T6, Hexokinase HKDC1 (Homo sapiens, UniProt Q2TB90); test: inhibition of HKDC1 glucose phosphorylation – biochemical, W721R variant, dose response (AID 504729); assay type: functional
T6 sequence (Q2TB90 whole entry): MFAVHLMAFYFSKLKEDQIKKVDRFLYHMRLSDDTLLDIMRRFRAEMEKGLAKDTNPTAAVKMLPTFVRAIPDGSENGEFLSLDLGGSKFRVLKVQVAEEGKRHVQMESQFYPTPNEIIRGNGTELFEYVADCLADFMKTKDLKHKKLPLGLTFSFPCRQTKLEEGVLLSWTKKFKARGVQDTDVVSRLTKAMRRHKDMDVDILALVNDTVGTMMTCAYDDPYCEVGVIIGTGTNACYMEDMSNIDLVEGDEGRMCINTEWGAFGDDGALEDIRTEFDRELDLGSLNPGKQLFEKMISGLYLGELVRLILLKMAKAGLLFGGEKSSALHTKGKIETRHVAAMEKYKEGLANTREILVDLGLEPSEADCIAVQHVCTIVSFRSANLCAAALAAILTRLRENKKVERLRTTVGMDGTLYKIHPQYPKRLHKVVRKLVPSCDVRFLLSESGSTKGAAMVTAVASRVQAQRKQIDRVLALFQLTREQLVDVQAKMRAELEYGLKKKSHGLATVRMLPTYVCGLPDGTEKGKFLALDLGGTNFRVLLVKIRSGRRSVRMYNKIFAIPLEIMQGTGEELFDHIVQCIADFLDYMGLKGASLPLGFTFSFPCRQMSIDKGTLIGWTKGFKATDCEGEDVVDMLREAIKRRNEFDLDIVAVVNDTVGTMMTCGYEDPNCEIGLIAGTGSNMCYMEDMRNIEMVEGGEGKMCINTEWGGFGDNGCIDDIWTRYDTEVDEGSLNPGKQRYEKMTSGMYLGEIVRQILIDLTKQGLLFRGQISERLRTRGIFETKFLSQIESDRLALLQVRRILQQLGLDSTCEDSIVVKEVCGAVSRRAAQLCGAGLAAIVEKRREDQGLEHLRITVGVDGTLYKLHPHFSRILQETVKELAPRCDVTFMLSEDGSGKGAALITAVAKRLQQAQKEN

[7] = target: Heat shock protein HSP 90-alpha (Homo sapiens, UniProt P07900); assay type: functional, organism-based
[8] = viability loss in THP-1 monocytes – THP-1 cells, cytotoxicity control for Vif-APOBEC3G degradation inhibitor project, dose response (AID 1117359); assay type: functional; details: THP-1
[9] = target: G2/mitotic-specific cyclin-B1 (Homo sapiens, UniProt P14635); test: Counterscreen assay for inhibitors of Wee1 degradation: dose response cell-based assay to identify inhibitors of cyclin B degradation. [Related pubchem assays: 1410, 1321 ]; assay type: functional
Wee1-like protein kinase = Wee1-like protein kinase (Homo sapiens, UniProt P30291); test: Dose Response Cell-based Assay for Inhibitors of Wee1 Degradation. [Related pubchem assays: 1410, 1321 ]; assay type: functional
[10] = target: T7, Low molecular weight phosphotyrosine protein phosphatase (Homo sapiens, UniProt P24666); test: inhibition of LMPTP-A enzymatic activity – biochemical, OMFP substrate, fluorescence intensity, set 2, dose response (AID 743307); assay type: functional
T7 sequence (P24666 whole entry): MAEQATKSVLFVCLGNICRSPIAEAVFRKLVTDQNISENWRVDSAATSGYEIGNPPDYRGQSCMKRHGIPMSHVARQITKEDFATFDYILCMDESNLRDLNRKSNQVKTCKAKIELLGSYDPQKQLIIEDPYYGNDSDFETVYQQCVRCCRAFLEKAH

[11] = target: T7, Low molecular weight phosphotyrosine protein phosphatase; test: inhibition of human LMPTP enzyme activity – biochemical, absorbance, pNPP substrate, LMPTP-A isoform, set 2, orthogonal assay, dose response (AID 743308); assay type: functional

Sequence of Insulin-degrading enzyme (P14735 whole entry): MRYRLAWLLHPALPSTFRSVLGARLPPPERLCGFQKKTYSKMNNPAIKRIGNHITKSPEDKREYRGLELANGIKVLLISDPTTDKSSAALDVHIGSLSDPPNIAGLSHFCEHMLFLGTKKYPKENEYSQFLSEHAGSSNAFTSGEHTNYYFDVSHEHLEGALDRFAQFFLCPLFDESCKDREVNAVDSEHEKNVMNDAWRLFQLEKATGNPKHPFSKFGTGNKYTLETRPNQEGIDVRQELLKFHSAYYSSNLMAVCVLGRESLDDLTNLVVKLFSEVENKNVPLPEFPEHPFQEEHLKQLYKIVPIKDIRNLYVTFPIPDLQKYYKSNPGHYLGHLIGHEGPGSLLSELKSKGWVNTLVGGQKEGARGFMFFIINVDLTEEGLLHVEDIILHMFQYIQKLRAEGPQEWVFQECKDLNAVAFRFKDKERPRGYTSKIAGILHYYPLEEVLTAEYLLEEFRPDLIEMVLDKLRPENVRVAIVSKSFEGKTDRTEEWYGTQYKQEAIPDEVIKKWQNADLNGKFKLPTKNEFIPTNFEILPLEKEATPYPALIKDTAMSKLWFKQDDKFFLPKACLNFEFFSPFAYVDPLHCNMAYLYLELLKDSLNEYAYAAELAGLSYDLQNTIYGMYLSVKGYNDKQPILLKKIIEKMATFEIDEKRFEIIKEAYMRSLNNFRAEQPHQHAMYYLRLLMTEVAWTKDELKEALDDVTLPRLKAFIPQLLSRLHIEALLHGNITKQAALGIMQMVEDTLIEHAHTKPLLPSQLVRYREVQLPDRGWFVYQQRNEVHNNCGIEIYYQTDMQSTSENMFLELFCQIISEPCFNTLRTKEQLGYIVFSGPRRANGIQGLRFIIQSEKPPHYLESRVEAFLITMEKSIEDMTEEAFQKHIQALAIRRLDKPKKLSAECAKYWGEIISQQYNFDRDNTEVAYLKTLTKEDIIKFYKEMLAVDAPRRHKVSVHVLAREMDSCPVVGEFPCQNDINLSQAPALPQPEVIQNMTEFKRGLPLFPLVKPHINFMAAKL
T1 sequence (P11940 whole entry, the tested form may be a part): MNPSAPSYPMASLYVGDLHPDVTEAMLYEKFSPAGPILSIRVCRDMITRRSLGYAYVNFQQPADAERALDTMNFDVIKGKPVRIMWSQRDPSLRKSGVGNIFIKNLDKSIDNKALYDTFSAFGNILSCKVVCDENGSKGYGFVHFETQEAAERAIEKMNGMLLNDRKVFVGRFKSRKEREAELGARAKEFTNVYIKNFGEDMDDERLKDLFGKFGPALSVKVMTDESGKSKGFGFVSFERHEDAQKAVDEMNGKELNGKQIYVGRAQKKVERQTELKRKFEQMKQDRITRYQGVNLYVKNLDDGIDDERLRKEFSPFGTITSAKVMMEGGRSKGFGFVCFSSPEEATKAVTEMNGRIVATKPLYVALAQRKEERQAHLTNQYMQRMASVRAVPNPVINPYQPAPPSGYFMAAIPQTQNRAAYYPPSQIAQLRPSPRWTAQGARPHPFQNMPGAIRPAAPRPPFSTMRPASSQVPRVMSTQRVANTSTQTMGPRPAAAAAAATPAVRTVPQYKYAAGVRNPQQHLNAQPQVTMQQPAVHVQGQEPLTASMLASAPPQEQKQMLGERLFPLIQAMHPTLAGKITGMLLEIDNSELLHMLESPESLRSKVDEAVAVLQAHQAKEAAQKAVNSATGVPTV
Sequence of G2/mitotic-specific cyclin-B1 (P14635 whole entry): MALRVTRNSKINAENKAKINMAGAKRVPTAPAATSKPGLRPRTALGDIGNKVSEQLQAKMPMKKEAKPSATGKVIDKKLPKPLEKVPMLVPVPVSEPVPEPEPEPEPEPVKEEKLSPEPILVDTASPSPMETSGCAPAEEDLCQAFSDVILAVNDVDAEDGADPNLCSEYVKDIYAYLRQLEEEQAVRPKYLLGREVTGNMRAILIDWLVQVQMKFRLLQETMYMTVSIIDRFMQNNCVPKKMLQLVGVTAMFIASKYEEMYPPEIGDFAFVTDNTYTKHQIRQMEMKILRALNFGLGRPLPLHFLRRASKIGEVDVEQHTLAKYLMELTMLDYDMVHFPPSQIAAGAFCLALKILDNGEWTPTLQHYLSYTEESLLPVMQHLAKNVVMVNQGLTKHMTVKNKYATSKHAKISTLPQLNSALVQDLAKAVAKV
Sequence of Beta Lactamase (Q932Y6 whole entry): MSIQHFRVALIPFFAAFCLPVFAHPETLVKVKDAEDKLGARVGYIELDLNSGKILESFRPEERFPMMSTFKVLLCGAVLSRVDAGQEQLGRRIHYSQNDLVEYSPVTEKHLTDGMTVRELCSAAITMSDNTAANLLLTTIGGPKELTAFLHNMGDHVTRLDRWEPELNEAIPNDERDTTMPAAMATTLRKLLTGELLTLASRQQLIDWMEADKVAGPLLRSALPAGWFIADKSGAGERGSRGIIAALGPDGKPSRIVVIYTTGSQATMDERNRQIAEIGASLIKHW
Sequence of Nonstructural protein 1 (Q194T2 whole entry): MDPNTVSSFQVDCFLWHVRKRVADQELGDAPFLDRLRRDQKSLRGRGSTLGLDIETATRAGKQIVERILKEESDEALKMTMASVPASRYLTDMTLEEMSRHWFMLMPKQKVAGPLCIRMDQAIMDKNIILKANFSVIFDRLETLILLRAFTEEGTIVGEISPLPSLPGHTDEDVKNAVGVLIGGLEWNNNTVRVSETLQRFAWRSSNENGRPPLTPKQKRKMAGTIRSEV
Sequence of Genome polyprotein (P29990 2492-3391 limits assumed): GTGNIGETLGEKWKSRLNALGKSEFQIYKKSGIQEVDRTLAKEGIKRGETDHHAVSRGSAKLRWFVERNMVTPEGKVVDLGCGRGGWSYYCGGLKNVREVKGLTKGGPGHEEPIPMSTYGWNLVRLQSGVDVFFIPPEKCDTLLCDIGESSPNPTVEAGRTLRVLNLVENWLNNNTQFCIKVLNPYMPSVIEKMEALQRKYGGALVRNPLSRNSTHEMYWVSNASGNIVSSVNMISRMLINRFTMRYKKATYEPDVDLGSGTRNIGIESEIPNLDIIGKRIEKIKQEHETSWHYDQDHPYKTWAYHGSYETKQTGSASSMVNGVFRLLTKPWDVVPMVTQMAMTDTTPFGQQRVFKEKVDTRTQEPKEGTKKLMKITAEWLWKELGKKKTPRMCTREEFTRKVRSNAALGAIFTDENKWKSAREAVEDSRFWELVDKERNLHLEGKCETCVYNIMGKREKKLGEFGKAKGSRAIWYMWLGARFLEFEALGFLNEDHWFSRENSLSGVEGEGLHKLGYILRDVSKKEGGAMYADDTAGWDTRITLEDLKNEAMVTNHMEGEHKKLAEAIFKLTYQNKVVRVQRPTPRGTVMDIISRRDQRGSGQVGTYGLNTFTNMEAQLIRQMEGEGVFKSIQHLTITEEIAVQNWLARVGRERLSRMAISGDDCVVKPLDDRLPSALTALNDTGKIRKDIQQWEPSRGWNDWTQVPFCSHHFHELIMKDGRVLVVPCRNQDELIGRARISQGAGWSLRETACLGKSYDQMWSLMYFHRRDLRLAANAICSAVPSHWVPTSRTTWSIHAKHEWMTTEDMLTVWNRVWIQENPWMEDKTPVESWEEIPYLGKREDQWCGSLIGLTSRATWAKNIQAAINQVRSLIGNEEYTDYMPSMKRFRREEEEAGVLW
Sequence of Wee1-like protein kinase (P30291 whole entry): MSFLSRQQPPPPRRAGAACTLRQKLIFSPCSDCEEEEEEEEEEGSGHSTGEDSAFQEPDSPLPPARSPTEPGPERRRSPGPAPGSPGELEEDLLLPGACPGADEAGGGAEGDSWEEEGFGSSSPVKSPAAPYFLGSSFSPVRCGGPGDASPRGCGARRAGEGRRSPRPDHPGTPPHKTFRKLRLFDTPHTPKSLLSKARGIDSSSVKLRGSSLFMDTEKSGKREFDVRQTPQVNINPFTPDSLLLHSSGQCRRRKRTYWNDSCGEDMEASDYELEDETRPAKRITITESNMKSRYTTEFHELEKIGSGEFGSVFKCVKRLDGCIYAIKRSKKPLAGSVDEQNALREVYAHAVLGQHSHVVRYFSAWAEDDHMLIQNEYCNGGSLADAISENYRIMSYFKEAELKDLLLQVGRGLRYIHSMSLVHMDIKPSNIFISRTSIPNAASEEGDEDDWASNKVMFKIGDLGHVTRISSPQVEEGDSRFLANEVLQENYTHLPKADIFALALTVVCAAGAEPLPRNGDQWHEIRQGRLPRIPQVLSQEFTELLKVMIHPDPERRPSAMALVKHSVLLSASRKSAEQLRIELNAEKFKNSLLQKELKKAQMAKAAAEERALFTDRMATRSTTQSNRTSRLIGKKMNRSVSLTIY

SMILES: O=C(O)CNC(=O)CC1SC(NN=C2CSC(=O)N2)=NC1=O (stereo unspecified)
- IC50 [1]: > 66 µM (inactive)
- IC50 (Nonstructural protein 1): 7.74 µM (active)
- IC50 [2]: 46.3 µM (active)
- IC50 [3]: > 66 µM (inactive)

SMILES: Cc1ccc(C)c(CN2C(=O)c3ccccc3[S+]([O-])c3ccc(C(=O)NCCCN4CCCC4)cc32)c1 (stereo unspecified)
- IC50 (Vero): 22 µM (active)

SMILES: Cc1sc2ncnc(SCC(=O)NC(=O)NCc3ccco3)c2c1C
- IC50 (Estrogen receptor): 11.5 µM (active)
- IC50 [4]: 10.6 µM (active)

SMILES: CCCCc1c(C)nc2ccc(Br)cc2c1SC(N)N
- IC50 [2]: > 50 µM (not active)

SMILES: CN(C)CCNS(=O)(=O)c1ccc(N2CCN(c3ccc(F)cc3)CC2)c([N+](=O)[O-])c1
- IC50 (Vero): 20 µM (active)

SMILES: Nc1c2c(nc3ccn(-c4ccccc4)c(=O)c13)CCCCC2
- IC50 [5]: 22.3 µM (not active)
- IC50 (Insulin-degrading enzyme): > 55.9 µM (not active)

SMILES: C=CCN(C(=O)COC(=O)c1cc[n+]([O-])cc1)c1nc(-c2ccccc2)cs1
- IC50 [5]: 50.6 µM (not active)
- IC50 (Insulin-degrading enzyme): 4.84 µM (active)

SMILES: O=C1C(Cl)=C(Oc2ccccc2)C(=O)c2ccccc21
- AC50 [6]: 0.598 µM (active)
- IC50 (CHO): 0.738 µM (active)
- IC50 (Beta Lactamase): 10.2 µM (inactive)
- IC50 (Genome polyprotein): 4.63 µM (active)
- IC50 (Hexokinase HKDC1): 4.47 µM (active)
- AC50 [7]: 2.7 µM (active)
- CC50 [8]: > 40 µM (active)

SMILES: O/C(=C\c1nc2ccccc2nc1O)c1cccs1
- EC50 [9]: > 49.7 µM (not active)
- EC50 (Wee1-like protein kinase): > 49.7 µM (not active)

SMILES: c1ccc(-c2nc(NCCCN3CCCCC3)c3ccccc3n2)cc1
- IC50 [10]: 21.9 µM (inactive)
- IC50 [11]: 38.6 µM (inactive)

SMILES: Clc1ccccc1-c1cc(NCCCN2CCCCC2)c2ccccc2n1
- IC50 [10]: 11.6 µM (active)
- IC50 [11]: 32.5 µM (inactive)
